Measurements from US10183011B2, “Anti-depression compounds” (Board of Regents of the University of Texas System, priority 2009, dated 2019).

Assays:
[1] = tested on: newborn hippocampal neurons; assay: 30 day BrdU pulse-chase survival assay of newborn hippocampal neurons, dose response; type: in vivo, mouse (C57 Bl/6); conditions: for increase in survival of newborn neurons: 5 mg/kg/day i.p. for 30 days; for neuroprotective efficacy (increase in survival of newborn neurons): 10 mg/kg/day i.p. for 30 days; for ceiling of efficacy (CoE), increase in survival: 20 or 40 mg/kg/day i.p. for 30 days
Description: FIG. 28. Neuroprotective efficacy of P7C3, P7C3A20 and Dimebon for newborn neurons in the adult hippocampus. Test compounds were evaluated by dose response assay for their ability to block normal apoptotic cell death of newborn neural precursor cells in the adult dentate gyrus. […] P7C3 is intermediate in both measures. 6 animals were tested per group. Dosing is expressed as total mg/day, and compounds were administered intraperitoneally in divided doses twice daily. Data are expressed as mean±SEM. Values for P7C3 and P7C3A20 were compared to those of vehicle (VEH), and values for Dimebon were compared to those of saline (SAL).
In order to more carefully compare the neuroprotective efficacy of these compounds in abetting hippocampal neurogenesis, we conducted dose-response studies in a 30 day BrdU pulse-chase survival assay (FIG. 28). Briefly, newborn cells were labeled with a single intraperitoneal (i.p.) injection of BrdU (150 mg/kg), followed by daily treatment with the three test compounds beginning the following day. After 30 days of compound administration, mice were transcardially perfused with 4% paraformaldehyde, brains were dissected, and immunohistochemical detection of BrdU followed by standard microscopic imaging and normalization for dentate gyrus volume was used to quantify the number of surviving cells.
Because both social activity and voluntary exercise enhance hippocampal neurogenesis, mice were individually housed without access to running wheels throughout the entire procedure, beginning one week prior to bromodeoxyuridine (BrdU, Sigma-Aldrich) labeling of newborn cells. Throughout the study, mice had ad libitum access to food and water. BrdU was injected intraperitoneally at 150 mg/kg i.p., and 24 hours later administration of test compounds or vehicle was initiated. P7C3 and P7C3A20 were dissolved in 5% dextrose (pH 7.0) with 2.5% DMSO and 10% Cremaphor EL (Sigma, C5135). Dimebon was dissolved in normal saline. Compounds were compared to their respective controls, and were tested at 2.5, 5, 10 and 20 mg/kg twice daily (i.p.) for 30 days. The injection site was alternated between right and left sides. Each group consisted of six 12-week-old adult male C57 Bl/6 mice. Animals were monitored daily for general health and weight loss. Cage changes were performed per routine scheduling. After 30 days of compound administration, mice were sacrificed by transcardial perfusion with 4% paraformaldehyde at pH 7.4, and their brains were processed for immunohistochemical detection of incorporated BrdU in the dentate gyrus. Dissected brains were immersed in 4% paraformaldehyde overnight at 4 degrees Celsius, then cryoprotected in sucrose before being sectioned with a Leica SM2000R sliding microtome coronally into […] thick free-floating sections. Unmasking of BrdU antigen was achieved through incubating tissue sections for two hours in 50% formamide/2×SSC at 65 degrees Celsius, followed by five minute wash in 2×SSC and subsequent incubation for thirty minutes in 2M HCl at 37 degrees Celsius. Sections were processed for immunohistochemical staining with mouse monoclonal anti-BrdU (1:100, Roche). Diaminobenzidine was used as a chromagen, and tissue was counter-stained with hematoxylin to aid in visualization of the neuroanatomy. Images were analyzed with a Nikon Eclipse 90i motorized research microscope with Plan Apo lenses coupled with Metamorph Image Acquisition software (Nikon). Quantification of all staining was done blind to treatment group. The number of BrdU+ cells in the entire dentate gyrus was quantified by counting BrdU+ cells within the dentate gyrus in every fifth section throughout the entire hippocampus and then normalizing for dentate gyrus volume.

G93A-SOD1 mutant mice = assay: Accelerating rotarod test in G93A-SOD1 mice, treatment from day 80; type: in vivo, mouse; conditions: 20 mg/kg/day i.p. from day 80
Description: FIG. 35. P7C3A20 preserves performance in the accelerating rotarod test when administered at the time of disease onset to G93A-SOD1 mutant mice. Treatment of G93A-SOD1 mutant mice with 20 mg/kg/d of P7C3A20, P7C3 or Dimebon, or the appropriate vehicle, was initiated on day 80, with 20 mice per group. All compounds were administered at 20 mg/kg/day i.p. in divided doses. […] Only sibling pairs were analyzed at each time point. By week 16, there were 13 compound-vehicle pairs remaining in each group. […] All testing and analysis was performed blind to treatment group.
Having observed evidence of compound-mediated protection of spinal cord motor neurons, we next sought to determine whether motor performance might also be protected in these mice. Motor performance was monitored by the accelerating rotarod task standardly employed for evaluation of rodent models of ALS. We again initiated administration of P7C3, P7C3A20 or Dimebon on day 80, at 20 mg/kg/day, starting with no less than 20 mice per treatment group. Each animal in each group had its own sibling-matched vehicle control, and testing was conducted blind to treatment group. Rotarod training was initiated on day 50 for 2 days, and repeated weekly testing was conducted every 7 days thereafter. Each mouse was subjected to four trials of 600 seconds each, with a 20 minute recovery break between each trial. The latency time to fall was averaged across all 4 trials.
Beginning on day 50, mice were trained on the accelerating rotarod using Colombia Instruments Rotamex-5. Training consisted of mice being placed on a rotarod moving at 5 rpm for 300 seconds. Mice were trained to stay on the rotarod for the entire 300 seconds. If a mouse fell, it was placed back on the rotarod and the 300 second trial was started again. Training took place on two consecutive days. On day 52, mice ran their first full rotarod test, as described in Current Protocols for Neuroscience. The rotarod began at 4 rpm and accelerated to 40 rpm over 600 seconds, increasing by 1.25 rpm every 20 seconds. The time to fall was automatically recorded. […]

SMILES	increase in survival of newborn neurons [1]	neuroprotective efficacy (increase in survival of newborn neurons) [1]	ceiling of efficacy (CoE), increase in survival [1]	accelerating rotarod performance (G93A-SOD1 mutant mice)
COc1cccc(NCC(F)Cn2c3ccc(Br)cc3c3cc(Br)ccc32)c1 (stereo not drawn) [Example P7C3A20, N-(3-(3,6-dibromo-9H-carbazol-9-yl)-2-fluoropropyl)-3-methoxyaniline]	~100%	about 175%	≈ 230%	showed significantly better performance
OC(CNc1ccccc1)Cn1c2ccc(Br)cc2c2cc(Br)ccc21 (stereo not drawn) [Example P7C3]	neither P7C3 nor Dimebon exhibited any effect	65%	≈ 130%	insufficiently active to preserve motor function
Cc1ccc2c(c1)c1c(n2CCc2ccc(C)nc2)CCN(C)C1 [Dimebon, 2,3,4,5-Tetrahydro-2,8-dimethyl-5-(2-(6-methyl-3-pyridyl)ethyl)-1H-pyrido(4,3-b)indole, reference compound]	neither P7C3 nor Dimebon exhibited any effect	15%	≈ 30%	insufficiently active to preserve motor function
